The test system of this assay is murine peritoneal macrophages. The assay can be described thus: Secretion of nitric oxide by murine peritoneal macrophages in vitro (Griess reaction). The assay is classed as cell-based, ICR mice. As to conditions: 24 hours. As for the experimental part:
Ten ICR mice were injected intraperitoneally with 1 ml 3% w/v aqueous thioglycolate. After 3 days, the mice were sacrificed by cervical dislocation. Macrophages were harvested by opening the peritoneum and lavaging the space with PBS. The PBS lavage from each sacrificed mouse was pooled. […] The cells were allowed to adhere on the bottom of the wells of microtiter plates for 1 hr at 37° C. in a humidified atmosphere of […] and 5% CO2. Next, the supernatant in the wells was carefully removed. […] The contacted cells were incubated at 37° C. in a humidified atmosphere of […] and 5% CO2 for 24 hours. At 24 hours, the amount of nitrate present in the cell-free culture medium was determined by the Griess reaction. (See Green L. C. et al, Analysis of nitrate, nitrite, and [15N] nitrate in biological fluids, Anal. Biochem., 1982, 126:131-138.) A 150 μl aliquot of cell-free culture medium was pipetted from each microtiter plate well, and reacted with 50 μl of Griess reagent for 10 minutes in a fresh microtiter plate well. Absorbance of the aliquot was then measured at 540 nm using a microplate reader (BTI, ELX 800).

On to lipopolysaccharide [LPS], for which the “Increased secretion of nitric oxide, dose dependence” value is “dose-dependent at low LPS concentrations”.

The record behind these values is patent US8158750B2, “Preparation and standardization of immunomodulatory peptide-linked glucans with verifiable oral absorbability from coriolus versicolor” (The Chinese University of Hong Kong, priority 2002, dated 2012).
